Data published in US6468964B1, “Control of acidic gut syndrome” (University of New England, of Armidale, priority 1997, dated 2002).
Where “and” joins values, the source holds several entries; their conditions need not be identical. Equal values may be shown once. Marks after values point to notes of the source that are not given here.

Experiments:
[1] = test system: acid accumulation in the hind gut; experiment: Acidic gut syndrome in pigs fed HGF diet: digesta/faecal pH and faecal consistency; format: in vivo, pig
Description: Pigs were weaned at 4 weeks of age and housed individually in pens with concrete floors with weld mesh dividing walls in temperature controlled facilities. The pens were cleaned twice per day and drinking water was provided by an automatic watering system. All animals were handled daily to acclimatise them to experimental procedures associated with sampling.
Piglets were fed ad libitum on the basal diet for two weeks until commencement of dietary treatments. The diets were formulated to ensure balanced provisions of nutrients for growth and contained 67.5% carbohydrate (rice, cornflour and raftilose) and 32.5% protein mix. The protein mix contained 55% meat meal, 32% fishmeal, 6% casein and 6% vitamins, oil and synthetic amino acids. The proportion of total carbohydrates contributed by rice, corn flour and raftilose on each day of the study is shown in Table 1 together with the total amount offered per pig.
1. Daily collection of faeces from the pens of each pig to assess faecal consistency and for measurement of pH. Faecal consistency was assessed on a scale 1 to 5 with 1 being liquid diarrhoea and 5 being dry, separate, well formed faeces.
(§1) 7. On day 7, half of the pigs in each treatment group were euthanased with pentobarbitone. Post mortem measurements were made of size of the digestive tract, the pH of diqesta in different part of the tract and the digestive tract and other organs were examined for any sign of abnormal tissue appearance. On day 8 the remaining pigs were euthanased and the same post mortem measurements made on these animals.

Caecal Lactobacilli = experiment: Pigs fed HGF diet: caecal Lactobacilli count; format: in vivo; details: HGF diet with 25 mg virginiamycin/kg DM
Description: (§2) Studies of rapid carbohydrate fermentation and acid build up in the hind gut of sheep and horses have shown that the concentration of volatile fatty acids (VFA) starts to increase and pH starts to drop before there is a proliferation of gram positive bacteria (particularly Streptococcus bovis and Lactobacilli) capable of producing lactic-acid. Lactic acid is a stronger acid than the VFA and is not absorbed from the caecum as quickly as VFA, and this combination of factors leads to low pH which is the first step in development of acidic gut syndrome. Virginiamycin was included in the diet of one of the two dietary treatments containing raftilose and high-maize starch to investigate its effectiveness in controlling lactic acid accumulation and hind gut pH as a potential method for preventing or controlling acidic gut syndrome.
as §1

Caecal Strep. Bovis = experiment: Pigs fed HGF diet: caecal Strep. bovis count; format: in vivo, Streptococcus bovis; details: HGF diet with 25 mg virginiamycin/kg DM
Description: as §2, §1

[2] = test system: immune system (neutrophils, lymphocytes, acute phase protein, IL-1); experiment: Pigs fed HGF diet: changes in immune system (white blood cells, acute phase protein, IL-1); format: in vivo, pig; details: HGF diet with 25 mg virginiamycin/kg DM
[3] = Pigs fed HGF diet: feed intake, weight change, weight of washed gut; format: in vivo, pig
Experimental: 3. Body weights were measured 2 days before the start of feeding experimental diets, on day 3 and day 7.
5. The amount of feed not consumed was measured each afternoon and intake calculated as a % of amount offered.
as §1

[4] = test system: fermentative acidosis in the rumen and hind gut; experiment: Sheep overfed high-barley pellets: rumen and faecal pH, lactate, rumen VFA; format: in vivo
Description: (§3) Six full mouth cannulated cross-bred sheep, weighing approximately 45 kg were used in the trial. These sheep were housed in individual pens on a wood grating floor in an enclosed animal house. All sheep were fed once per day, and water was available at all times ad libitum. All sheep were fed a basal diet consisting of oaten chaff plus 1% urea and 1% mineral pre-mix (Pfizer Animal Health Pty. Ltd.). At time 0 in the experiment, all sheep were fed a pellet containing high levels of barley with or without virginiamycin (VM). The sheep were autopsied 48 hours after grain feeding.
(§4) All sheep were offered 1000 g of a pellet containing 76% barley, 17% lucerne, 3.5% cottonseed meal, 1% urea and 1.5% limestone at the start of the experiment. The sheep were then offered another 1000 g of the pellet 12 hours later. All sheep consumed all of the pelleted feed offered. Half of the sheep received the pellets with no dietary additives, and the other half received the pellets with virginiamycin (VM) added at 30 mg/kg. Eskalin (Pfizer Animal Health Pty. Ltd., 20 g virginiamycin/kg) was included at 1.5 g/kg pellets to provide 30 mg VM/kg in the mixed diet. The animals were monitored closely after receiving grain and autopsied 48 hours after initial grain feeding.
(§5) All sheep were fitted with faecal collection bags, which consisted of a PVC ring attached to the posterior of the sheep to which a plastic bag was attached in order to collect total faecal output. Rumen fluid was taken via the rumen fistula. Rumen and faecal samples were taken at 4 hourly intervals for the first 12 hours after grain feeding. Samples were then taken at 24, 36 and 48 hours after initial feeding.
Rumen fluid pH was analysed immediately using a portable pH meter (‘Piccolo 2’ ATC pH meter by Hanna Instruments). A sample was also added to a 20 mL McCartney bottle containing approximately 7 μL of concentrated H2SO4, and frozen for later analysis of lactic and volatile fatty acids.
(§6) A representative 20 g sample of faeces was taken into a small vial, an equal volume of water added and mixed well. The faecal pH was then measured immediately on this sample as for rumen fluid. A further sample was placed in a sterile container and an equal weight of deionised water added to it. This was mixed well using a sterile spatula, and then centrifuged at 15000 rpm for 20 mins. The supernatant was then transferred using a sterile pipette to 3 individual microfuge tubes and frozen for later analysis for TNF-α. TNF-α was measured in the faeces using an ELISA method.

TNF-α = experiment: Sheep overfed high-barley pellets: faecal TNF-α by ELISA; format: in vivo; details: VM 30 mg/kg pellets; for Faecal TNF-α concentration, individual sheep: sheep 2, 4, 6, listed as VM
Description: as §3, §4, §5, §6

[5] = test system: acid accumulation in the hind gut; experiment: Acidic gut syndrome in pigs fed HGF diet: digesta/faecal pH and faecal consistency; format: in vivo, pig; details: HGF diet with 25 mg virginiamycin/kg DM, post mortem
[6] = pigs on HGF diet, 25 mg virginiamycin/kg DM
[7] = weaner pigs, HGF diet with 25 mg virginiamycin/kg dietary DM, post mortem
[8] = pigs, post mortem, HGF diet with 25 mg virginiamycin/kg DM
[9] = proportion mmol/100 mmol, sheep, VM 30 mg/kg
[10] = sheep fed high grain pellets, VM 30 mg/kg
[11] = sheep overfed grain, VM 30 mg/kg pellets
[12] = sheep overfed grain, VM 30 mg/kg, 36 and 48 hour samples
[13] = sheep, VM 30 mg/kg versus no additive

virginiamycin
pH in different parts of the digestive tract (FIG. 6, words) ([1]; pigs fed HGF diet with or without virginiamycin): consistent effect in reducing acid accumulation (increasing pH) in all parts of the digestive tract | Acid accumulation in the hind gut and in faeces [1, 6]: effective in reducing the extent of acid accumulation | Effect on faecal consistency [1, 6]: significantly improved faecal consistency | Ileal pH ([1]; pigs, HGF diet with 25 mg virginiamycin/kg DM, post mortem): 6.3 | Faecal consistency (av d1-5) ([1]; scale 1 to 5, 1 liquid diarrhoea, 5 dry well formed faeces, pigs, HGF diet with 25 mg virginiamycin/kg DM): 3.53^c | Average faecal pH ([1]; weaner pigs, HGF diet with 25 mg virginiamycin/kg DM): 6.0^b | Faecal pH (day 2) ([1]; weaner pigs, HGF diet with 25 mg virginiamycin/kg DM, day 2): 6.3^b | Faecal pH (day 5) ([1]; weaner pigs, HGF diet with 25 mg virginiamycin/kg DM, day 5): 6.0^b | Caecal pH [1, 7]: 5.7^ab | Rectal pH [1, 7]: 6.3^b | Caecal Lactobacilli (Caecal Lactobacilli): 1.4 × 10^10 | Caecal Strep. Bovis (Caecal Strep. Bovis): 3.2 × 10^9 | Acute phase protein CD3 [2]: 5.9 | IL-1 (av. days 1, 2, 5 & 8) [2]: 1.6 | IL-1 (day 5) ([2]; day 5): 2.0 | Lymphocytes (L) ([2]; jugular blood): 11.0 | N:L ratio ([2]; neutrophil to lymphocyte ratio): 0.57a | Feed intake versus HGF diet alone ([3]; pigs on HGF diet treated with virginiamycin): higher intake | Weight change (days 3 to 7) ([3]; pigs, HGF diet with 25 mg virginiamycin/kg DM): 1.13 | Intake (% offered) (day 4) ([3]; pigs, HGF diet with 25 mg virginiamycin/kg DM, day 4): 81^ab % offered | Av intake (days 1 to 8) ([3]; pigs, HGF diet with 25 mg virginiamycin/kg DM, intake calculated as % of amount offered): 83^ab | Weight of washed gut (g): Caecum [3, 8]: 31.4^a g | Weight of washed gut (g): Rectum [3, 8]: 35.1 g | Weight of washed gut (g): Stomach [3, 8]: 115 g | Rumen Ac (%) [4, 9]: 50.941% | Rumen But (%) [4, 9]: 8.75% | Rumen Pr (%) [4, 9]: 34.36% | Ratio of Propionate to Acetate+(2×Butyrate) ([4]; rumen, sheep fed VM versus no additive): significantly higher | Rumen D-Lactic acid [4, 10]: 25.12 mmol/L | Rumen L-Lactic acid [4, 10]: 7.33 mmol/L | Rumen total VFA [4, 10]: 81.80 mmol/L | Average faecal pH [4, 11]: 7.28 | Average rumen pH [4, 11]: 5.84 | Faecal D-lactate [4, 12]: 7.43 | Faecal L-lactate [4, 12]: 28.2 | Difference in rumen or faecal pH between treatment groups [4, 13]: no differences | Treatment effect on rumen lactic acid concentration [4, 13]: No treatment effects | pH in different parts of the digestive tract (FIG. 8, words) ([4]; sheep, high-barley pellets with or without virginiamycin, autopsy at 48 hours): consistent effect in reducing acid accumulation (increasing pH) in all parts of the digestive tract | Faecal TNF-α concentration, group average (TNF-α; experimental hour 0): 12333 | Faecal TNF-α concentration, individual sheep (TNF-α; experimental hour 0): 9000 and 16000 and 12000 | Faecal TNF-α concentration, group average (TNF-α; experimental hour 24): 17667 | Faecal TNF-α concentration, individual sheep (TNF-α; experimental hour 24): 12000 and 24000 and 17000 | Faecal TNF-α concentration, group average (TNF-α; experimental hour 36): 62444 | Faecal TNF-α concentration, individual sheep (TNF-α; experimental hour 36): 98333 and 64000 and 25000 | Faecal TNF-α concentration, group average (TNF-α; experimental hour 48): 124222 | Faecal TNF-α concentration, individual sheep (TNF-α; experimental hour 48): 230667 and 66000 and 76000 | Stomach pH (days 8/9) [5]: 3.6
